The values that follow come from US20160060209A1, “BIS A[…] COMPLEXES FOR X-RAY IMAGING” (BAYER PHARMA AKTIENGESELLSCHAFT üß, priority 2013, published 2016).

A short description of this data set: Stability of bis azainositol hafnium complexes in aqueous buffered solution on heat treatment (steam autoclave). Conditions: aqueous buffered solution pH 7.4, 5 mmol/L, 121° C. for 45 minutes in steam autoclave; HPLC peak area ratio x metal concentration ratio (ICP-OES). It counts as physicochemical. The protocol:
The stability of bis azainositol hafnium complexes was determined in aqueous, buffered solution at pH 7.4. The solution containing 5 mmol/L of the compound in a tightly sealed vessel was heated to 121° C. for 45 minutes in a steam autoclave. The hafnium concentration of the solution was determined by ICP-OES before and after heat treatment. The integrity of the compound was determined by HPLC analysis before and after heat treatment. Absolute stability was calculated as the ratio of the peak area of the compound after and before the heat treatment multiplied with the ratio of the metal concentration of the solution after and before heat treatment.
HPLC system: Column 1: Reversed phase C18.
Solvent A1: 0.5 mM tetrabutylammonium phosphate pH 6 Solvent A2: 0.1% formic acid in water Solvent B1: methanol Solvent B2: acetonitrile
The use of columns, solvents, flow rate and gradients is detailed in the table below. Detector: element specific detection by ICP-MS, running at m/z 180, the most abundant isotope of hafnium
On to “Hydroxido-3κO-[μ3-3,3′,3″-({[1R-(1α,2α,3α,4α,5α,6α)]-2,4,6-trihydroxylato-1κ^2O^2O^6, 2κ^2O^2O^4,3κ^2O^4O^6-cyclohexane-1,3,5-triyl}tris{methylimino-1κN^1,2κN^3,3κN^5}) tri-propanoato-1κO,2κO′,3κO″][μ3-3,3′-({[1R-(1α,2α,3α,4α,5α,6α)]-2,4,6-trihydroxylato-1κ^2O^2O^6,2κ^2O^2O^4,3κ^2O^4O^6-5-[methylamino-3κN^5]cyclohexane-1,3-diyl}bis{methyl-imino-1κN^1,2κN^3})dipropanonato-1κO,2κO′]trihafnium (IV) [Example 1]”, for which the Stability was found to be 100%.
The value for “Bis[μ3-2,2′-({[1R-(1α,2α,3α,4α,5α,6α)]-5-[(2-carboxylato-3κO-ethyl)amino-3κN^5]-2,4,6-trihydroxylato-1κ^2O^2O^6,2κ^2O^2O^4,3κ^2O^4O^6-cyclohexane-1,3-diyl}diimino-1κN^1,2κN^3)di-acetato-1κO,2κO′]trihafnium(IV) [Example 10]” was 101%.
The value for “Bis[μ3-2,2′-({[1R-(1α,2α,3α,4α,5α,6α)]-2,4,6-trihydroxylato-1κ^2O^2O^6,2κ^2O^2O^4,3κ^2O^4O^6-5-[(2-hydroxylato-3κO-ethyl)amino-3κN^5]cyclohexane-1,3-diyl}diimino-1κN^1,2κN^3)di-acetato-1κO,2κO′]trihafnium (IV) [Example 8]” was 100%; that for “Bis[μ3-3,3′-({[1R-(1α,2α,3α,4α,5α,6α)]-5-[(2S,3R)(3,4-dihydroxy-2-hydroxylato-3κO-butyl)amino-3κN^5]-2,4,6-trihydroxylato-1κ^2O^2O^6,2κ^2O^2O^4,3κ^2O^4O^6-cyclohexane-1,3-diyl}diimino-1κN^1,2κN^3)dipropanoato-1κO,2κO′]trihafnium(IV) [Example 5]” was 101%.
As for “Bis[μ3-3,3′-({[1R-(1α,2α,3α,4α,5α,6α)]-2,4,6-trihydroxylato-1κ^2O^2O^6,2κ^2O^2O^4,3κ^2O^4O^6-5-[(2-hydroxylato-3κO-ethyl)amino-3κN^5]cyclohexane-1,3-diyl}diimino-1κN1,2κN^3)di-propanoato-1κO,2κO′]trihafnium (IV) [Example 3]”, the Stability was 100%.
